# Target: T1, Hsp90β (Homo sapiens, UniProt P08238)
# T1 construct: gene HSP90AB1; recombinant Hsp90β purified from baculovirus infected Sf9 cells
# Test: SPR, immobilized Hsp90β, binding curve fit (kinetic Kd […])
# T1 sequence (P08238 2-724): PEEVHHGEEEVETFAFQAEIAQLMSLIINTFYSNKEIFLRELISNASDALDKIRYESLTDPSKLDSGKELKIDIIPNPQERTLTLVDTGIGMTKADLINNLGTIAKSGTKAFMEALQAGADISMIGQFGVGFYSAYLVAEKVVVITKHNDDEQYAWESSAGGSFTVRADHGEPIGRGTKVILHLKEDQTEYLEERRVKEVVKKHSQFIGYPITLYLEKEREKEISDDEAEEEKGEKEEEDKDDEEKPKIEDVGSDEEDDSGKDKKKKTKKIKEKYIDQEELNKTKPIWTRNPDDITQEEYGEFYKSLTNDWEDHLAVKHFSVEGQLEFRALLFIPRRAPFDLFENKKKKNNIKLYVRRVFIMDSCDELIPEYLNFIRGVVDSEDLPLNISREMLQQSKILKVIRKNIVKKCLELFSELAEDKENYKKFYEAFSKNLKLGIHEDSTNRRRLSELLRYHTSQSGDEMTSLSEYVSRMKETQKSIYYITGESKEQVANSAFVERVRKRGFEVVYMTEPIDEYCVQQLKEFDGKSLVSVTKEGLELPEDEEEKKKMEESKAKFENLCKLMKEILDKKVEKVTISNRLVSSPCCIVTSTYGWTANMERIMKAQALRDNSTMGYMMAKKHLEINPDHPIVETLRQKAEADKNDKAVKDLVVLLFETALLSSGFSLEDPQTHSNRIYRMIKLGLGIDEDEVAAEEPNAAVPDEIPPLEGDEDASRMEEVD
substance,measurement,value
KU174,Kd,78 µM

# Source: paper PMC3240935, “Development and characterization of a novel C-terminal inhibitor of Hsp90 in androgen dependent and independent prostate cancer cells” (2011)
